Tested on: ornithine decarboxylase (ODC)
Experiment: ODC assay: inhibition of TPA induction of ornithine decarboxylase (retinoic acid-like activity)
Assay type: biochemical
Conditions: concentration of the test compound which causes 80% inhibition in the ODC assay; TPA-induced
Excerpt: The retinoic acid-like activity of these compounds is confirmed through the classic measure of retinoic acid activity involving the effects of retinoic acid on ornithine decarboxylase. The original work on the correlation between retinoic acid and decrease in cell proliferation was done by Verma & Boutwell, Cancer Research, 1977, 37,2196-2201. That reference discloses that ornithine decarboxylase (ODC) activity increased precedent to polyamine biosynthesis. It has been established elsewhere that increases in polyamine synthesis can be correlated or associated with cellular proliferation. Thus, if ODC activity could be inhibited, cell hyperproliferation could be modulated. Although all cases for ODC activity increases are unknown, it is known that 12-0-tetradecanoylphorbol-13-acetate (TPA) induces ODC activity. […] Activity of exemplary compounds of the present invention in the abovedescribed ODC assay is disclosed in Table 2 which provides the IC80 concentration for the respective exemplary compound. ("IC80 " is that concentration of the test compound which causes 80% inhibition in the ODC assay. By analogy, "IC60, for example, is that concentration of the test compound which causes 60% inhibition in the ODC assay.)

Structure (SMILES)	IC80 conc [nmols]
CCOC(=O)c1ccc(C#Cc2ccc3c(c2)C(C)(C)CCC3=O)cc1 [Compound 1, Ethyl 4-[(5,6,7,8-tetrahydro-8,8-dimethyl-5-oxonaphth-2-yl)ethynyl]benzoate]	1.60
CCOC(=O)c1ccc(C#Cc2ccc3c(c2)C(=O)CCC3(C)C)cc1 [Compound 2, Ethyl 4-[(5,6,7,8-tetrahydro-8,8-dimethyl-5-oxonaphth-3-yl)ethynyl]benzoate]	0.85
CCOC(=O)c1ccc(C#Cc2ccc3c(c2)C(C)(C)CCC3=O)nc1 [Compound 5, Ethyl 6-[(5,6,7,8-tetrahydro-8,8-dimethyl-5-oxonaphth-2-yl)ethynyl]nicotinate]	113
CC1(C)CCC(=O)c2ccc(C#Cc3ccc(C(=O)O)cc3)cc21 [Compound 7, 4-[(5,6,7,8-tetrahydro-8,8-dimethyl-5-oxonaphth-2-yl)ethynyl]benzoic acid]	1.60
CC1(C)CCC(=O)c2cc(C#Cc3ccc(C(=O)O)cc3)ccc21 [Compound 8, 4-[(5,6,7,8-tetrahydro-8,8-dimethyl-5-oxonaphth-3yl)ethynyl]benzoic acid]	1.37
CCOC(=O)c1ccc(C#Cc2ccc3c(c2)C2(CCC3(C)C)SCCCS2)cc1 [Compound 58, Ethyl. 4-[[5,6,7,8-tetrahydro-8,8-dimethyl-5-(2-(1,3-dithiane))naphth-3-yl]ethynyl]benzoate]	26.12
CCOC(=O)c1ccc(C#Cc2ccc3c(c2)C(C)(C)CCC32SCCCS2)cc1 [Compound 59, Ethyl 4-[[5,6,7,8-tetrahydro-8,8-dimethyl-5-(2-(1,3-dithiane))napth-2-yl]ethynyl]benzoate]	23.00
CC1(C)CCC2(SCCCS2)c2cc(C#Cc3ccc(C(=O)O)cc3)ccc21 [Compound 60, 4-[[5,6,7,8-tetrahydro-8,8-dimethyl-5-(2-(1,3-dithiane))naphth-3-yl]ethynyl]benzoic acid]	2.60

Tested on: ornithine decarboxylase (ODC)
Experiment: not given
Conditions: literature statement; cited from earlier work

Structure (SMILES)	inhibition of TPA induction of ODC activity (in words)
CC1=C(/C=C/C(C)=C/C=C/C(C)=C/C(=O)O)C(C)(C)CCC1 [Retinoic acid]	inhibits this induction of ODC activity

Source: patent US5618943A, “Acetylenes disubstituted with a 5 OXO substituted tetrahydronaphthyl group and with an aryl or heteroaryl group having retinoid-like biological activity” (Allergan, priority 1994, dated 1997)
